The text below walks through data of US9593149B2, “Amylin and calcitonin receptor agonist” (Novo Nordisk A/S, priority 2014, dated 2017).

Values after ≈ are worked out from the molar mass of the structure shown. Numbered stars: 1 amine (or outer) side, 2 acyl side, 3 side chain; on linkers, the order of the positions; unused ones are H or OH. Side chains are listed from the residue outwards. Peptide text beside a SMILES is read from it. * marks the point of attachment. C20 diacid = O=C(O)CCCCCCCCCCCCCCCCCCC(=O)*; γGlu = O=C(O)[C@H](CCC(=O)[*:2])N[*:1]

The nature of the series: Assay (IV) determination of solubility. Format: physicochemical. On the procedure: Assay (IV)—Determination of Solubility
The mimylin peptide was dissolved in water at ˜500 nmol/ml and mixed 1:1 with a series of buffers (100 mM glycylglycine pH 3.0, 100 mM glycylglycine pH 4.0, 100 mM glycylglycine pH 5.0, 100 mM bistrispropane pH 6.0, 100 mM bistrispropane pH 6.5, 100 mM bistrispropane pH 7.0, 100 mM bistrispropane pH 7.5, 100 mM bistrispropane pH 8.0).

As to `CC(C)C[C@H](NC(=O)CNC(=O)[C@H](CO)NC(=O)[C@H](C)N)C(=O)N[C@@H](CO)C(=O)N[C@H](C(=O)N[C@@H](C)C(=O)N[C@@H](C)C(=O)N[C@@H](CC(C)C)C(=O)NCC(=O)N[C@@H](CCCNC(=N)N)C(=O)N[C@@H](CC(C)C)C(=O)N[C@@H](CO)C(=O)N[C@@H](CCC(N)=O)C(=O)N[C@@H](CCC(=O)O)C(=O)N[C@@H](CC(C)C)C(=O)N[C@@H](Cc1cnc[nH]1)C(=O)N[C@@H](CCC(=O)O)C(=O)N[C@@H](CC(C)C)C(=O)N[C@@H](CCC(N)=O)C(=O)N[C@H](C(=O)N[C@@H](Cc1ccc(O)cc1)C(=O)N1CCC[C@H]1C(=O)N[C@@H](CCCNC(=N)N)C(=O)N[C@H](C(=O)N[C@@H](CCC(=O)O)C(=O)N[C@H](C(=O)NCC(=O)N[C@@H](CO)C(=O)N[C@@H](CCCCNC(=O)CC[C@H](NC(=O)CCCCCCCCCCCCCCCCCCC(=O)O)C(=O)O)C(=O)N[C@H](C(=O)N[C@@H](Cc1ccc(O)cc1)C(N)=O)[C@@H](C)O)[C@@H](C)O)[C@@H](C)O)[C@@H](C)O)[C@@H](C)O` [compound 107, [des1, 4G, 15Q, 21Q, 23Y, 30S, 31K(C20 diacid-gGlu), 32T, 33Y]mimylin] (H-ASGLSTAALGRLSQELHELQTYPRTETGSK([γGlu-C20 diacid])TY-NH2), the Solubility result is listed as “≧200 μM” (pH 3.0); “≧200 μM” (pH 4.0); “≧200 μM” (pH 5.0); “≧200 μM” (pH 7.5); “≧200 μM” (pH 8.0). For the same compound, the solubility (commonly how much of the substance goes into solution per volume) at 18 h by setting is: (pH 6.0) 148 µM (≈ 580 µg/mL); (pH 6.5) 129 µM (≈ 506 µg/mL); (pH 7.0) 74 µM (≈ 290 µg/mL).
Consider `CC(C)C[C@H](NC(=O)CNC(=O)[C@H](CO)NC(=O)[C@H](C)NC(=O)CC[C@H](NC(=O)CCCCCCCCCCCCCCCCCCC(=O)O)C(=O)O)C(=O)N[C@@H](CO)C(=O)N[C@H](C(=O)N[C@@H](C)C(=O)N[C@@H](C)C(=O)N[C@@H](CC(C)C)C(=O)NCC(=O)N[C@@H](CCCNC(=N)N)C(=O)N[C@@H](CC(C)C)C(=O)N[C@@H](CO)C(=O)N[C@@H](CCC(N)=O)C(=O)N[C@@H](CCC(=O)O)C(=O)N[C@@H](CC(C)C)C(=O)N[C@@H](Cc1cnc[nH]1)C(=O)N[C@@H](CCC(=O)O)C(=O)N[C@@H](CC(C)C)C(=O)N[C@@H](CCC(=O)O)C(=O)N[C@H](C(=O)N[C@@H](Cc1ccc(O)cc1)C(=O)N1CCC[C@H]1C(=O)N[C@@H](CCCNC(=N)N)C(=O)N[C@H](C(=O)N[C@@H](CCC(=O)O)C(=O)N[C@H](C(=O)NCC(=O)N[C@@H](CO)C(=O)NCC(=O)N[C@H](C(=O)N[C@@H](Cc1ccc(O)cc1)C(N)=O)[C@@H](C)O)[C@@H](C)O)[C@@H](C)O)[C@@H](C)O)[C@@H](C)O` [compound 108, [N-terminal(C20 diacid-gGlu), des1, 4G, 15Q, 21E, 23Y, 30S, 31G, 32T, 33Y]mimylin] ({C20 diacid-γGlu}-ASGLSTAALGRLSQELHELETYPRTETGSGTY-NH2), for which the Solubility result (pH 3.0) is reported as “≧200 μM”; the Solubility entry (pH 4.0) is given as “≧200 μM”; the Solubility entry (pH 6.0) is given as “≧200 μM”; the Solubility result (pH 6.5) is reported as “≧200 μM”; the Solubility entry (pH 7.0) is on record as “≧200 μM”; the Solubility result (pH 7.5) is recorded as “≧200 μM”. For the setting “pH 8.0”, the Solubility result was “≧200 μM”. For the same compound, the solubility at 18 h (pH 5.0) was found to be 65 µM (≈ 250 µg/mL).
For the compound `CC(C)C[C@H](NC(=O)CNC(=O)[C@H](CO)NC(=O)[C@H](C)NC(=O)CC[C@H](NC(=O)CCCCCCCCCCCCCCCCCCC(=O)O)C(=O)O)C(=O)N[C@@H](CO)C(=O)N[C@H](C(=O)N[C@@H](C)C(=O)N[C@@H](C)C(=O)N[C@@H](CC(C)C)C(=O)NCC(=O)N[C@@H](CCCNC(=N)N)C(=O)N[C@@H](CC(C)C)C(=O)N[C@@H](CO)C(=O)N[C@H](C(=O)N[C@@H](CCC(=O)O)C(=O)N[C@@H](CC(C)C)C(=O)N[C@@H](Cc1cnc[nH]1)C(=O)N[C@@H](CCC(=O)O)C(=O)N[C@@H](CC(C)C)C(=O)N[C@@H](CCC(=O)O)C(=O)N[C@H](C(=O)N[C@@H](Cc1ccc(O)cc1)C(=O)N1CCC[C@H]1C(=O)N[C@@H](CCCNC(=N)N)C(=O)N[C@H](C(=O)N[C@@H](CCC(=O)O)C(=O)N[C@H](C(=O)NCC(=O)N[C@@H](CO)C(=O)NCC(=O)N[C@H](C(=O)N[C@@H](Cc1ccc(O)cc1)C(N)=O)[C@@H](C)O)[C@@H](C)O)[C@@H](C)O)[C@@H](C)O)[C@@H](C)O)[C@@H](C)O` [compound 112, [N-terminal(C20 diacid-gGlu), des1, 4G, 15T, 21E, 23Y, 30S, 31G, 32T, 33Y]mimylin] ({C20 diacid-γGlu}-ASGLSTAALGRLSTELHELETYPRTETGSGTY-NH2), the Solubility entry is given as “≧200 μM” (pH 3.0); “≧200 μM” (pH 6.0); “≧200 μM” (pH 6.5); “≧200 μM” (pH 7.0); “≧200 μM” (pH 7.5); “≧200 μM” (pH 8.0). For the same compound, the solubility at 18 h is, setting by setting: (pH 4.0) 132 µM (≈ 505 µg/mL); (pH 5.0) 22 µM (≈ 84.1 µg/mL).
With `CC(C)C[C@H](NC(=O)CNC(=O)[C@H](CO)NC(=O)[C@H](C)NC(=O)CC[C@H](NC(=O)CCCCCCCCCCCCCCCCCCC(=O)O)C(=O)O)C(=O)N[C@@H](CO)C(=O)N[C@H](C(=O)N[C@@H](C)C(=O)N[C@@H](C)C(=O)N[C@@H](CC(C)C)C(=O)NCC(=O)N[C@@H](CCCNC(=N)N)C(=O)N[C@@H](CC(C)C)C(=O)N[C@@H](CO)C(=O)N[C@@H](CCC(=O)O)C(=O)N[C@@H](CCC(=O)O)C(=O)N[C@@H](CC(C)C)C(=O)N[C@@H](Cc1cnc[nH]1)C(=O)N[C@@H](CCC(=O)O)C(=O)N[C@@H](CC(C)C)C(=O)N[C@@H](CCC(N)=O)C(=O)N[C@H](C(=O)N[C@@H](Cc1ccc(O)cc1)C(=O)N1CCC[C@H]1C(=O)N[C@@H](CCCNC(=N)N)C(=O)N[C@H](C(=O)N[C@@H](CCC(=O)O)C(=O)N[C@H](C(=O)NCC(=O)N[C@@H](CO)C(=O)NCC(=O)N[C@H](C(=O)N[C@@H](Cc1ccc(O)cc1)C(N)=O)[C@@H](C)O)[C@@H](C)O)[C@@H](C)O)[C@@H](C)O)[C@@H](C)O` [compound 113, [N-terminal(C20 diacid-gGlu), des1, 4G, 15E, 21Q, 23Y, 30S, 31G, 32T, 33Y]mimylin] ({C20 diacid-γGlu}-ASGLSTAALGRLSEELHELQTYPRTETGSGTY-NH2), the Solubility entry is on record as “≧200 μM” (pH 3.0); “≧200 μM” (pH 6.0); “≧200 μM” (pH 6.5); “≧200 μM” (pH 7.0); “≧200 μM” (pH 7.5); “≧200 μM” (pH 8.0). The solubility at 18 h is, setting by setting: (pH 4.0) 195 µM (≈ 751 µg/mL); (pH 5.0) 57 µM (≈ 219 µg/mL).
Regarding `CC(C)C[C@H](NC(=O)CNC(=O)[C@H](CO)NC(=O)[C@H](C)NC(=O)CC[C@H](NC(=O)CCCCCCCCCCCCCCCCCCC(=O)O)C(=O)O)C(=O)N[C@@H](CO)C(=O)N[C@H](C(=O)N[C@@H](C)C(=O)N[C@@H](C)C(=O)N[C@@H](CC(C)C)C(=O)NCC(=O)N[C@@H](CCCNC(=N)N)C(=O)N[C@@H](CC(C)C)C(=O)N[C@@H](CO)C(=O)N[C@@H](CCC(N)=O)C(=O)N[C@@H](CCC(=O)O)C(=O)N[C@@H](CC(C)C)C(=O)N[C@@H](Cc1cnc[nH]1)C(=O)N[C@@H](CCC(=O)O)C(=O)N[C@@H](CC(C)C)C(=O)N[C@@H](CCC(N)=O)C(=O)N[C@H](C(=O)N[C@@H](Cc1ccc(O)cc1)C(=O)N1CCC[C@H]1C(=O)N[C@@H](Cc1cnc[nH]1)C(=O)N[C@H](C(=O)N[C@@H](CCC(=O)O)C(=O)N[C@H](C(=O)NCC(=O)N[C@@H](CO)C(=O)NCC(=O)N[C@H](C(=O)N[C@@H](Cc1ccc(O)cc1)C(N)=O)[C@@H](C)O)[C@@H](C)O)[C@@H](C)O)[C@@H](C)O)[C@@H](C)O` [compound 117, [N-terminal(C20 diacid-gGlu), des1, 4G, 15Q, 21Q, 23Y, 25H, 30S, 31G, 32T, 33Y]mimylin] ({C20 diacid-γGlu}-ASGLSTAALGRLSQELHELQTYPHTETGSGTY-NH2), the Solubility entry is on record as “≧200 μM” (pH 3.0); “≧200 μM” (pH 4.0); “≧200 μM” (pH 6.0); “≧200 μM” (pH 6.5); “≧200 μM” (pH 7.0); “≧200 μM” (pH 7.5). Under “pH 8.0”, the Solubility entry is “≧200 μM”. The solubility at 18 h (pH 5.0) was found to be 38 µM (≈ 146 µg/mL).
Turning to `CC(C)C[C@H](NC(=O)CNC(=O)[C@H](CO)NC(=O)[C@H](C)NC(=O)CC[C@H](NC(=O)CCCCCCCCCCCCCCCCCCC(=O)O)C(=O)O)C(=O)N[C@@H](CO)C(=O)N[C@H](C(=O)N[C@@H](C)C(=O)N[C@H](C(=O)N[C@@H](CC(C)C)C(=O)NCC(=O)N[C@@H](CCCNC(=N)N)C(=O)N[C@@H](CC(C)C)C(=O)N[C@@H](CO)C(=O)N[C@@H](CCC(N)=O)C(=O)N[C@@H](CCC(=O)O)C(=O)N[C@@H](CC(C)C)C(=O)N[C@@H](Cc1cnc[nH]1)C(=O)N[C@@H](CCC(=O)O)C(=O)N[C@@H](CC(C)C)C(=O)N[C@@H](CCC(N)=O)C(=O)N[C@H](C(=O)N[C@@H](Cc1ccc(O)cc1)C(=O)N1CCC[C@H]1C(=O)N[C@@H](CCCNC(=N)N)C(=O)N[C@H](C(=O)N[C@@H](CCC(=O)O)C(=O)N[C@H](C(=O)NCC(=O)N[C@@H](CO)C(=O)NCC(=O)N[C@H](C(=O)N[C@@H](Cc1ccc(O)cc1)C(N)=O)[C@@H](C)O)[C@@H](C)O)[C@@H](C)O)[C@@H](C)O)C(C)C)[C@@H](C)O` [compound 118, [N-terminal(C20 diacid-gGlu), des1, 4G, 9V, 15Q, 21Q, 23Y, 30S, 31G, 32T, 33Y]mimylin], where the note is “pH 3.0”, the Solubility entry is “≧200 μM”. Moreover, the solubility at 18 h reads like this: (pH 4.0) 2 µM (≈ 7.75 µg/mL); (pH 5.0) 8 µM (≈ 31 µg/mL); (pH 6.0) 17 µM (≈ 65.9 µg/mL); (pH 6.5) 5 µM (≈ 19.4 µg/mL); (pH 7.0) 26 µM (≈ 101 µg/mL); (pH 7.5) 90 µM (≈ 349 µg/mL). Where the note is “pH 8.0”, this compound showed a solubility at 18 h of 173 µM (≈ 671 µg/mL).
